In patent US10357546B2, “Acceleration of diabetic wound healing” (University of Notre Dame du Lac, priority 2014, dated 2019):
“Also recorded” adds a separate entry of the source. Structures can show the parent of a compound that is named as a salt. Where two headings read alike, the source gives them in different places.

Legend:
MMP-8 = MMP-8 (Homo sapiens (Human), UniProt P22894); test: Enzyme inhibition, MMP-8 catalytic domain; format: biochemical
Protocol: (§6) Inhibitor stock solutions (10 mM) were prepared freshly in DMSO before enzyme inhibition assays. […] Enzyme inhibition studies were carried out using a Cary Eclipse fluorescence spectrophotometer (Varian, Walnut Creek, Calif., USA).

MMP-9 = MMP-9 (Homo sapiens (Human), UniProt P14780); test: Enzyme inhibition, MMP-9 catalytic domain; format: biochemical; settings: for residence time: calculated as 1/koff
MMP-9, sequence (P14780 107-444): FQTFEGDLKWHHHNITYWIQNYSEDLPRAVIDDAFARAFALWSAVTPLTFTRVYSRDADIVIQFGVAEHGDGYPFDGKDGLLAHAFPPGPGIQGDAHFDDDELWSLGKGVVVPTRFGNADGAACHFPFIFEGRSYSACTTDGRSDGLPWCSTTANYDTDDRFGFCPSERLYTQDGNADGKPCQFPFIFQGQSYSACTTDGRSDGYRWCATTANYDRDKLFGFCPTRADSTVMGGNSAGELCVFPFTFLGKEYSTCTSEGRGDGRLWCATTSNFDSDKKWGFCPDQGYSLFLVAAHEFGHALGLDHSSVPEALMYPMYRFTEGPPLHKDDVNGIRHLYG
Protocol: as §6

MMP-7 = MMP-7 (Homo sapiens (Human), UniProt P09237); test: Enzyme inhibition, MMP-7; format: biochemical
MMP-7, sequence (P09237 95-267): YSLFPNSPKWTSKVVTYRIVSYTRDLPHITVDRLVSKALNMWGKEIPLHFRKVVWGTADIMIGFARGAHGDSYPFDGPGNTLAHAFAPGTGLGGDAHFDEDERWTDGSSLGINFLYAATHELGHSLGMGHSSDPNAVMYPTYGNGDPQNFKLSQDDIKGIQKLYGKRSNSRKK
Text: (§1) Human recombinant active MMP-2 and MMP-7, and the catalytic domains of MMP-3 and MMP-14/MT1-MMP were purchased from EMD Chemicals, Inc. (San Diego, Calif., USA); human recombinant catalytic domains of MMP-1, MMP-8, and MMP-9 were purchased from Enzo Life Sciences, Inc. (Farmingdale, N.Y., USA); human recombinant active ADAM9 and ADAM10 were purchased from R&D Systems (Minneapolis, Minn., USA). Fluorogenic substrates MOCAc-Pro-Leu-Gly-Leu-A2pr(Dnp)-Ala-Arg-NH2 (for MMP-2, MMP-7, MMP-9 and MMP-14) and MOCAc-Arg-Pro-Lys-Pro-Val-Glu-Nva-Trp-Arg-Lys(Dnp)-NH2 (for MMP-3) were purchased from Peptides International (Louisville, Ky., USA); Mca-KPLGL-Dpa-AR-NH2 (for MMP-1, MMP-8 and ADAM10) and Mca-PLAQAV-Dpa-RSSSR-NH2 (for ADAM9) were purchased from R&D Systems (Minneapolis, Minn., USA). The Km values for MMP-2, MMP-9 and MMP-14 were the same as previously reported by Gooyit et al. ((2013) J. Med. Chem. 56(20):8139-8150). Inhibitor stock solutions (10 mM) were prepared freshly in DMSO before enzyme inhibition assays. We followed the same methodology for enzyme inhibition studies as reported before by Page-McCaw et al. ((2007) Nat Rev Mol Cell Biol 8(3):221-233). Enzyme inhibition studies were carried out using a Cary Eclipse fluorescence spectrophotometer (Varian, Walnut Creek, Calif., USA).

ADAM9 = ADAM9 (Homo sapiens (Human), UniProt Q13443); test: Enzyme inhibition, ADAM9; format: biochemical
ADAM9, sequence (Q13443 whole entry, looked up, change not shown): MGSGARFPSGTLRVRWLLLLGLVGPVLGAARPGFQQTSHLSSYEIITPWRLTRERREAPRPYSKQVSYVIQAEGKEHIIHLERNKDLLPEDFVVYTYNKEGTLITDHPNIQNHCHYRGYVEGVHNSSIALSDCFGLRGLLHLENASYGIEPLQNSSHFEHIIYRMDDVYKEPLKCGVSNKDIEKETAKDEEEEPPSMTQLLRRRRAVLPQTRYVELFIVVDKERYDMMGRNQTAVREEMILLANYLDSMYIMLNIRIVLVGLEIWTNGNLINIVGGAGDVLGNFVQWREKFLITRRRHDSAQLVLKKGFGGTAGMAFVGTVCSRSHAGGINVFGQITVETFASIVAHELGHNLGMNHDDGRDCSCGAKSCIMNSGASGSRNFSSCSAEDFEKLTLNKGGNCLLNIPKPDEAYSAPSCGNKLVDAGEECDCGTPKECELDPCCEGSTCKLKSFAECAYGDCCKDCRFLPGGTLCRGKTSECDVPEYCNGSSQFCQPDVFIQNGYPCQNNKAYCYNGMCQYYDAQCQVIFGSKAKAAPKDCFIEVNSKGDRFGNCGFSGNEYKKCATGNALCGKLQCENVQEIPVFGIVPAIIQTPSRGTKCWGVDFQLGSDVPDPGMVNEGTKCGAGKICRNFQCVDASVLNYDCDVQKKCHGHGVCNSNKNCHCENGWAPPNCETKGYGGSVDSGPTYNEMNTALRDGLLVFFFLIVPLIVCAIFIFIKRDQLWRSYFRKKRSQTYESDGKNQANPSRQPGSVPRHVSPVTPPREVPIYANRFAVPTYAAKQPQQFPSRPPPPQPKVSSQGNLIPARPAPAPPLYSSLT
Text: as §1

MMP-2 = MMP-2 (Homo sapiens (Human), UniProt P08253); test: Enzyme inhibition, MMP-2; format: biochemical
MMP-2, sequence (P08253 110-660): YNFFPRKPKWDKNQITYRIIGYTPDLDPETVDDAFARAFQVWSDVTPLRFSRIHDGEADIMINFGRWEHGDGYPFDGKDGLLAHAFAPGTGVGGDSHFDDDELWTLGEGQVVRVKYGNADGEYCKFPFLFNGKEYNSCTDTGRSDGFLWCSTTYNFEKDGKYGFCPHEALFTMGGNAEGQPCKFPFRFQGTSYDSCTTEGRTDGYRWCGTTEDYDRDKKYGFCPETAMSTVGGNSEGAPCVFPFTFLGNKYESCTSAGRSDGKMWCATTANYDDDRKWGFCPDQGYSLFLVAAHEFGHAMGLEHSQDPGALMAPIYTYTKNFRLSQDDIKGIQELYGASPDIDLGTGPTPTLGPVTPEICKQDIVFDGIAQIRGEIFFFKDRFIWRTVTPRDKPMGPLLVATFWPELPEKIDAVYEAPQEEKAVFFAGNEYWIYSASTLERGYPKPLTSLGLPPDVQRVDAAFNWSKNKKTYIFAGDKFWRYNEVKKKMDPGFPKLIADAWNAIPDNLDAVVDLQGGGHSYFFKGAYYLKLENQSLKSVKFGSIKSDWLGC
Text: as §1

[1] = tested on: diabetic wounds of db/db mice; test: Excisional diabetic wound model, wound closure; format: in vivo, mouse
Protocol: Female diabetic db/db mice (BKS.Cg-Dock7^m+/+Lepr^db/J, 8-weeks old) were purchased from the Jackson Laboratory (Bar Harbor, Me., USA) and fed 5001 Laboratory Rodent Diet (LabDiet, St. Louis, Mo., USA) and water ad libitum. Mice were housed in polycarbonate shoebox cages with hardwood bedding at 72±2° F. and 12 h light/12 h dark.
The dorsal area of the mice was shaved, and a single excisional 8-mm diameter wound (50 mm^2) was made on the dorsal thorax with a biopsy punch (Miltex, Plainsboro, N.J., USA) while the animals were under isofluorane anesthesia. Wounds were covered with Tegaderm™ dressing (3M Company, St. Paul, Minn., USA). Topical treatment was started the next day.
Mice were anesthetized with isofluorane, and wounds were photographed with an Olympus SP-800 UZ camera mounted on a tripod at a fixed distance; a ruler was included in the digital photo. Wound areas were calculated using NIH ImageJ software (version 1.48) and expressed as percent change in wound area relative to day 0.
(§2) Wound measurements were taken on days 0, 7, 10, and 14. Animals were sacrificed on day 14 and wounds analyzed by H&E staining, TUNEL, and in-situ zymography.
Female diabetic db/db (BKS.Cg-Dock7m+/+Leprdb/J, 8-weeks old, 38±3 g, n=24) were used for this study. Wounds were inflicted as described and the following day the wounds were treated topically with MMP-8 (50 μL of 20 μg/mL MMP-8 in reaction buffer) or vehicle (50 μL reaction buffer) once a day for 14 days. The reaction buffer consisted of 50 mM Tris (pH 7.5), 10 mM CaCl2, 150 mM NaCl, and 0.05% (w/v) Brij-35 (polyoxyethyleneglycoli dodecyl ether). Digital photographs of the wounds were taken on days 0, 7, 10, and 14 while animals were under isoflurane anesthesia. On days 7 and 14, 12 mice (n=6 per group) were sacrificed. The wounds were excised, embedded in OCT compound, and cryosectioned for histological evaluation and in-situ zymography.
(§3) Mice were sacrificed on days 7, 10, and 14, and the excised wounds were embedded in OCT compound and cryosectioned for histological evaluation and in situ zymography.

[2] = tested on: MMP-8 activity (collagenase) in diabetic wounds; test: In-situ zymography with DQ-collagen; format: in vivo, mouse; settings: db/db mice
Text: (§7) In-situ zymography detects MMP activity in vivo using the fluorogenic substrates: DQ-gelatin for gelatinase (MMP-2 and MMP-9) activity and DQ-collagen for collagenase (MMP-1, MMP-8, and MMP-13) activity.
(§8) Wounds were embedded in optimal cutting temperature (OCT, Tissue-Tek, Sakura Finetek, Torrance, Calif., USA) compound and cryosectioned at 12-μm thickness for hematoxylin-eosin (H&E) and at 8-μm thickness for in-situ zymography. […] For in-situ zymography, unfixed cryostat sections of wound tissues were incubated in reaction buffer (50 mM TBS pH 7.6) containing DQ-gelatin or DQ-collagen (Molecular Probes, Inc., Eugene, Oreg., USA) at 37° C. for 6 h. After fixation in 4% paraformaldehyde in PBS, cells were counterstained with DAPI and the images were visualized by fluorescence microscopy. […] The images for in-situ zymography and vascular density were obtained by confocal microscopy.

[3] = tested on: apoptotic cells in diabetic wounds; test: TUNEL apoptosis detection in diabetic wounds; format: in vivo, mouse; settings: db/db mice, ND-336 0.1 mg/wound/day, day 14
Text: as §2, §3
(§4) Wounds were embedded in optimal cutting temperature (OCT, Tissue-Tek, Sakura Finetek, Torrance, Calif., USA) compound and cryosectioned at 12-μm thickness for hematoxylin-eosin (H&E) and at 8-μm thickness for in-situ zymography. Re-epithelialization was assessed on a fluorescent microscope (Nikon Eclipse 90i, Nikon Instruments, Inc., Melville, N.Y., USA). Apoptotic cells in wound sections were assessed using a modified terminal deoxynucleotidyl transferase-mediated dUTP-nick-end labeling (TUNEL) assay kit, following the manufacturer's instructions (Trevigen, Inc., Gaithersburg, Md., USA). For in-situ zymography, unfixed cryostat sections of wound tissues were incubated in reaction buffer (50 mM TBS pH 7.6) containing DQ-gelatin or DQ-collagen (Molecular Probes, Inc., Eugene, Oreg., USA) at 37° C. for 6 h. After fixation in 4% paraformaldehyde in PBS, cells were counterstained with DAPI and the images were visualized by fluorescence microscopy. […]

CD31 = test: Angiogenesis by anti-CD31 staining; format: in vivo, mouse; settings: db/db mice wounds
Protocol: Wounds were embedded in optimal cutting temperature (OCT, Tissue-Tek, Sakura Finetek, Torrance, Calif., USA) compound and cryosectioned at 12-μm thickness for hematoxylin-eosin (H&E) and at 8-μm thickness for in-situ zymography. Re-epithelialization was assessed on a fluorescent microscope (Nikon Eclipse 90i, Nikon Instruments, Inc., Melville, N.Y., USA). Apoptotic cells in wound sections were assessed using a modified terminal deoxynucleotidyl transferase-mediated dUTP-nick-end labeling (TUNEL) assay kit, following the manufacturer's instructions (Trevigen, Inc., Gaithersburg, Md., USA). For in-situ zymography, unfixed cryostat sections of wound tissues were incubated in reaction buffer (50 mM TBS pH 7.6) containing DQ-gelatin or DQ-collagen (Molecular Probes, Inc., Eugene, Oreg., USA) at 37° C. for 6 h. After fixation in 4% paraformaldehyde in PBS, cells were counterstained with DAPI and the images were visualized by fluorescence microscopy. Immunofluorescent detection of vascular density was performed by staining the tissues with Alexa Fluor 488 anti-mouse CD31 (BioLegend, San Diego, Calif., USA), followed by staining the nuclei with DAPI. The images for in-situ zymography and vascular density were obtained by confocal microscopy.

[4] = Stability in the buffers of the kinetic assays; format: physicochemical
MMP-3 = MMP-3 (Homo sapiens (Human), UniProt P08254); test: Enzyme inhibition, MMP-3 catalytic domain; format: biochemical
MMP-3, sequence (P08254 100-272): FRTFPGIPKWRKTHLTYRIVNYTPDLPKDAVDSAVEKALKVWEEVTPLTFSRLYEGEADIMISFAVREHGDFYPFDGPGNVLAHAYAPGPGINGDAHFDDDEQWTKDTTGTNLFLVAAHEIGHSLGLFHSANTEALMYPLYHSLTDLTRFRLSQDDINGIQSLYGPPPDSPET
Text: as §1

MMP-14 = MMP-14 (Homo sapiens (Human), UniProt P50281); test: Enzyme inhibition, MMP-14 catalytic domain; format: biochemical
Text: as §1

[5] = tested on: re-epithelialization of diabetic wounds; test: H&E staining, re-epithelialization of diabetic wounds; format: in vivo, mouse; settings: db/db mice, ND-336 0.1 mg/wound/day, day 14
Protocol: as §2
Female diabetic db/db (BKS.Cg-Dock7m+/+Leprdb/J, 8-weeks old, 38±3 g, n=24) were used for this study. Wounds were inflicted as described and the following day the wounds were treated topically with MMP-8 (50 μL of 20 μg/mL MMP-8 in reaction buffer) or vehicle (50 μL reaction buffer) once a day for 14 days. The reaction buffer consisted of 50 mM Tris (pH 7.5), 10 mM CaCl2, 150 mM NaCl, and 0.05% (w/v) Brij-35 (polyoxyethyleneglycoli dodecyl ether). […]
as §4, with “For in-situ zymography, unfixed cryostat sections of wound tissues were incubated in reaction buffer (50 mM TBS pH 7.6) containing DQ-gelatin or DQ-collagen (Molecular Probes, Inc., Eugene, Oreg., USA) at 37° C. for 6 h.” left out

VEGF = VEGF in wound tissue by ELISA; format: in vivo, mouse; settings: db/db mice
Protocol: as §3
(§5) Wound tissues (n=3 mice/group) were harvested and immediately frozen in liquid nitrogen on days 1, 3, and 14. The extracted tissues were homogenized in cold lysis buffer containing free-EDTA protease inhibitor cocktail (Pierce, Rockford, Ill., USA). The lysates were analyzed for protein concentration by the Bradford protein assay (Bio-Rad, Hercules, Calif., USA). The levels of IL-6, TGF-β1 and VEGF in the lysates were determined by ELISA, following the manufacturer's protocol (Abcam, Cambridge, Mass., USA). The cytokine levels for each mouse sample were expressed in picograms/mg tissue.

IL-6 = IL-6 in wound tissue by ELISA; format: in vivo, mouse; settings: db/db mice, versus vehicle
Protocol: as §3, §5

MMP-1 = MMP-1 (Homo sapiens (Human), UniProt P03956); test: Enzyme inhibition, MMP-1 catalytic domain; format: biochemical
MMP-1, sequence (P03956 100-269): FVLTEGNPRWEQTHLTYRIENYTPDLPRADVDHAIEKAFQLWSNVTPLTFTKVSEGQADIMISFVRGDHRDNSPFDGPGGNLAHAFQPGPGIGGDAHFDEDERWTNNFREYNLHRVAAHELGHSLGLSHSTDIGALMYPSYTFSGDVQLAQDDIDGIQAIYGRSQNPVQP
Text: as §1

[6] = tested on: MMP-9 activity (gelatinase) in diabetic wounds; test: In-situ zymography with DQ-gelatin; format: in vivo, mouse; settings: db/db mice
Text: as §7, §8

ADAM10 = ADAM10 (Homo sapiens (Human), UniProt O14672); test: Enzyme inhibition, ADAM10; format: biochemical
ADAM10, sequence (O14672 214-672): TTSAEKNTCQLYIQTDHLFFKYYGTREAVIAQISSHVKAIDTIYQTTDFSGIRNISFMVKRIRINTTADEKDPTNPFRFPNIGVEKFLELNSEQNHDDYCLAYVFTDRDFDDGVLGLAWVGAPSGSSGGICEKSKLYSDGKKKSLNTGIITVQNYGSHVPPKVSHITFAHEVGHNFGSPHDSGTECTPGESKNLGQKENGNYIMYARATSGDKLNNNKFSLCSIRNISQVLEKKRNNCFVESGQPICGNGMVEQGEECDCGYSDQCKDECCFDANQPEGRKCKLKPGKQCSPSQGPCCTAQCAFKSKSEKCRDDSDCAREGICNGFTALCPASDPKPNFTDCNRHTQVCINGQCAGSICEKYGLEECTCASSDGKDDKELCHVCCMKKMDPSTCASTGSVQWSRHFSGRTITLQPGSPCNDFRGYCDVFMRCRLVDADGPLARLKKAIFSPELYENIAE
Text: as §1

TGF-β1 = TGF-β1 in wound tissue by ELISA; format: in vivo, mouse; settings: db/db mice, versus vehicle
Protocol: as §3, §5

[7] = topical ND-336 0.1 mg/wound/day
[8] = combination study: ND-336 0.05 mg/wound/day, MMP-8 1 μg/wound/day

MMP-8, sequence (P22894 100-262): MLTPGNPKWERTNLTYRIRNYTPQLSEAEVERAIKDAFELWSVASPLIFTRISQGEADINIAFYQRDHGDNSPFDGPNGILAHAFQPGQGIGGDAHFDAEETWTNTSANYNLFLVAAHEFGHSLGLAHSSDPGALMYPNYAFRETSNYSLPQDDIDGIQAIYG

SMILES: CS(=O)(=O)Oc1ccc(Oc2ccc(S(=O)(=O)CC3CS3)cc2)cc1 (centres unmarked) [JNMS-38]
- Inhibition type, MMP-8 (MMP-8): linear competitive
- Inhibition type, MMP-9 (MMP-9): slow-binding

SMILES: Nc1ccc(Oc2ccc(S(=O)(=O)CC3CS3)cc2)cc1 (centres unmarked) [ND-322]
- Inhibition type, MMP-9 (MMP-9): slow-binding

SMILES: NCc1ccc(Oc2ccc(S(=O)(=O)CC3CS3)cc2)cc1 (centres unmarked) [ND-336, (4-(4-((Thiiran-2-ylmethyl)sulfonyl)phenoxy)phenyl)methanamine HCl salt]
- inhibition of MMP-7 (in words) (MMP-7): marginal to no inhibition
- inhibition at 100 µM (MMP-7; @ 100 μM): 1%
- inhibition at 100 µM (ADAM9; @ 100 μM): 31%
- inhibition of ADAM9 (in words) (ADAM9; printed as ADAMS): marginal to no inhibition
- Inhibition type, MMP-8 (MMP-8; HCl salt): linear noncompetitive; also recorded: linear non-competitive
- Inhibition type, MMP-2 (MMP-2): slow-binding
- wound healing in dose-response study ([1]; 0.05 mg/wound/day, day 14, versus vehicle and 0.025 and 0.01 mg/wound/day): significant better healing
- diabetic wound healing (in words) [1, 7]: accelerated diabetic wound healing
- wound healing faster than vehicle [1, 7]: about 2 fold
- MMP-8 activity in wounds (DQ-collagen) ([2]; ND-336 0.1 mg/wound/day): not affected
- MMP-8 activity in wounds (DQ-collagen) [2, 8]: presence of MMP-8
- apoptosis (TUNEL) [3]: significantly decreased
- angiogenesis by anti-CD31 antibodies (CD31): increased angiogenesis
- stability in the buffers used in the kinetic assays [4]: stable
- inhibition of MMP-3 (in words) (MMP-3): marginal to no inhibition
- inhibition at 100 µM (MMP-3; @ 100 μM, catalytic domain): 23%
- Inhibition type, MMP-14 (MMP-14): slow-binding
- re-epithelialization (H&E) [5]: almost complete re-epithelialization
- VEGF concentrations in the wounds (VEGF; compared to vehicle): increased
- Area-under-the-curve (AUC) for VEGF (VEGF; versus vehicle): significantly increased
- Area-under-the-curve (AUC) for IL-6 (IL-6): significantly reduced
- IL-6 concentrations in wounds (IL-6; days 1, 3, 14): significantly reduced
- inhibition of MMP-1 (in words) (MMP-1): marginal to no inhibition
- inhibition at 100 µM (MMP-1; @ 100 μM, catalytic domain): 4%
- Inhibition type, MMP-9 (MMP-9): slow-binding
- lower Ki for MMP-9 than for MMP-8 (MMP-9; MMP-9 versus MMP-8): 50 fold
- MMP-9 activity in wounds (DQ-gelatin) ([6]; ND-336 0.1 mg/wound/day): significantly decreased
- MMP-9 activity in wounds (DQ-gelatin) [6, 8]: inhibition of MMP-9
- inhibition of ADAM10 (in words) (ADAM10): marginal to no inhibition
- inhibition at 100 µM (ADAM10; @ 100 μM): 14%
- Area-under-the-curve (AUC) for TGF-β1 (TGF-β1): significantly reduced
- levels of TGF-β1 in wounds (TGF-β1; days 1, 3, 14): significantly reduced

SMILES: COC(=O)Nc1ccc(Oc2ccc(S(=O)(=O)CC3CS3)cc2)cc1 (centres unmarked) [ND-380]
- Inhibition type, MMP-8 (MMP-8): non-competitive
- Ki (MMP-8): 13 µM
- Inhibition type, MMP-9 (MMP-9): slow-binding
- residence time (MMP-9): 19.6 min

SMILES: CCOC(=O)Nc1ccc(Oc2ccc(S(=O)(=O)CC3CS3)cc2)cc1 (centres unmarked) [ND-394]
- Inhibition type, MMP-8 (MMP-8): non-competitive
- Ki (MMP-8): 15 µM
- Inhibition type, MMP-9 (MMP-9): slow-binding
- Ki (MMP-9): 0.86 µM
- residence time (MMP-9): 25.6 min
